Laboratory results reported in US4476137A, “[1-(2-Benzoxazolyl)hydrazino]alkyl nitrile derivatives” (Abbott Laboratories, priority 1983, dated 1984).

tested on: dermal Arthus reaction; assay: reverse passive Arthus reaction test (Type III hypersensitivity), reduction of dermal lesion; type: in vivo, Male Sprague-Dawley rats; details: 100 mg/kg oral, 30 min before intradermal Anti-B.S.A.; lesion measured four hours later; 4 rats per group
Description: Proc. 35, 774 (1976). Each compound was administered orally to a group of four animals.
The […] passive Arthus reaction test in rats is conducted as follows: Male Sprague-Dawley rats weighing approximately 130-160 g. are used, 4 rats per group. All animals are injected intravenously with 0.5 ml. 0.075% Bovine Serum Albumin (B.S.A.)+2% Evans Blue solution. Each rat then receives an oral dose of drug; one drug is administered per group.
Thirty minutes subsequent to drug dosing, each animal is injected intradermally with 0.05 ml. 1.44% Anti-B.S.A. into the dorsal skin. Four hours later the animals are sacrificed, the dorsal skin reflexed, and the lesion excised. Two perpendicular diameters of each lesion are measured. The average diameters of the lesions from the treated groups are compared with the average diameters from the control group to determine any drug effect.

SMILES	% Inhibition of lesion of dermal Arthus reaction
N#CCCN(N)c1nc2ccccc2s1 [3-[1-(2-benzthiazolyl)hydrazino]propanenitrile]	59%
CCCCC1C(=O)N(c2ccccc2)N(c2ccccc2)C1=O [Phenylbutazone, reference compound]	inactive

same assay, conditions: Rattus norvegicus, 4 h; 100 mg/kg oral, 30 min before intradermal Anti-B.S.A.; lesion measured four hours later; 4 rats per group

SMILES	inhibition in vivo at 100 mg/kg
N#CCCN(N)c1nc2ccccc2o1 [3-[1-(2-Benzoxazolyl)hydrazino]propanenitrile]	68%
CC(C#N)CN(N)c1nc2ccccc2o1 (stereo not shown) [3-[1-(2-benzoxazolyl)hydrazino]-2-methylpropanenitrile]	45%
CC(CC#N)N(N)c1nc2ccccc2o1 (stereo not shown) [3-[1-(2-benzoxazolyl)hydrazino]-3-methylpropanenitrile]	48%
Cc1cc2oc(N(N)CCC#N)nc2c(C)c1C [3-[1-(4,5,6-Trimethyl-2-benzoxazolyl)hydrazino]propanenitrile]	59%
Cc1cc(C)c2oc(N(N)CCC#N)nc2c1C [3-[1-(4,5,7-Trimethyl-2-benzoxazolyl)hydrazino]propanenitrile]	55%
Cc1cc(C)c2oc(N(N)CCC#N)nc2c1 [3-[1-(5,7-dimethyl-2-benzoxazolyl)hydrazino]propanenitrile]	59%
N#CCCN(N)c1nc2cc(C#N)ccc2o1 [3-[1-(5-cyano-2-benzoxazolyl)hydrazino]propanenitrile]	66%
N#CCCN(N)c1nc2cc(F)ccc2o1 [3-[1-(5-fluoro-2-benzoxazolyl)hydrazino]propanenitrile]	55%
N#CCCN(N)c1nc2cc(CS)ccc2o1 [3-[1-(5-mercaptomethyl-2-benzoxazolyl)hydrazino]propanenitrile]	40%
COc1ccc2oc(N(N)CCC#N)nc2c1 [3-[1-(5-methoxy-2-benzoxazolyl)hydrazino]propanenitrile]	67%
Cc1ccc2oc(N(N)CCC#N)nc2c1 [3-[1-(5-methyl-2-benzoxazolyl)hydrazino]propanenitrile]	70%
N#CCCN(N)c1nc2cc(C(F)(F)F)ccc2o1 [3-[1-(5-trifluoromethyl-2-benzoxazolyl)hydrazino]propanenitrile]	48%
Cc1ccc2nc(N(N)CCC#N)oc2c1 [3-[1-(6-methyl-2-benzoxazolyl)hydrazino]propanenitrile]	58%
Cc1cc2oc(N(N)CCC#N)nc2cc1Cl [3-[1-(6-methyl-5-chloro-2-benzoxazolyl)hydrazino]propanenitrile]	76%
N#CCCN(N)c1nc2cccc(Cl)c2o1 [3-[1-(7-Chloro-2-benzoxazolyl)hydrazino]propanenitrile]	48%
Cc1cccc2nc(N(N)CCC#N)oc12 [3-[1-(7-methyl-2-benzoxazolyl)hydrazino]propanenitrile]	47%

tested on: carrageenin pleurisy; assay: modified carrageenin pleurisy assay (reduction in accumulation of exudate volume and leukocytes); type: in vivo; details: Dose 100 (unit not given)
Description: The anti-inflammatory activity of these compounds was established by using a modification of the carrageenin pleurisy assay described in Vinegar et al. Proc. Soc. Exp. Biol. Med. 143:711 (1973).

SMILES	% Inhibition Cells (leukocyte accumulation)	% Inhibition Volume exudates
N#CCCN(N)c1nc2ccccc2o1 [3-[1-(2-Benzoxazolyl)hydrazino]propanenitrile]	39%	61%
CCCCC1C(=O)N(c2ccccc2)N(c2ccccc2)C1=O [Phenylbutazone, reference compound]	13%	59%
